# Experimental data taken from US12491187B2, “Use of MCT1 inhibitors to enhance insulin sensitivity” (H. LEE MOFFIT CANCER CENTER AND RESEARCH INSTITUTE, INC., priority 2022, dated 2025).
# Key:
# Format in all cases: cell-based, murine
# [1] = tested on: differentiated 3T3-L1 cells; assay: RT-qPCR of mRNA levels in differentiated adipocytes
# Protocol: RT-qPCR: RNA was harvested from preadipocytes using the RNeasy® Plus Mini Kit as per manufacturer's recommendations (Qiagen). For differentiated adipocytes, RNA was collected and isolated using TRIzol (Thermo Fisher Scientific) according to the manufacturer's instructions. Quantification of RNA was performed using the Nanodrop 1000 Spectrophotometer. RNA (2 μg) was reverse transcribed using Superscript III First Strand synthesis kit (Invitrogen). RT-qPCR detection with SYBR green was performed with the resulting cDNA and a 50/50 forward primer: reverse primer ratio using the QuantStudio™ 5 (Applied Biosystems™). Oligonucleotide primer sequences used in this study can be found in the table below.
# [2] = tested on: differentiated 3T3-L1 (WT) cells; assay: Immunoblotting of protein expression in differentiated adipocytes
# Protocol: Immunoblotting: For the collection of membrane bound proteins (i.e., MCT1), cells were lysed and the membrane fraction of protein was isolated as previously described (Sadler, J B A, et al. Preparation of a total membrane fraction from 3T3-L1 adipocytes (Cold Spring Harb. Protoc. 2016, 2016, pdb-prot083675). Briefly, cells were lysed with ice cold HES buffer (250 mM sucrose, 20 mM HEPES, 1 mM EDTA, pH7.4) containing a cocktail of protease and phosphatase inhibitors (Roche Diagnostic) and centrifuged for 5 min (500 g at 4° C.) to pellet out nuclei. The remaining supernatant (containing cytosolic and membrane bound proteins) was collected. For all other immunoblotting experiments, RIPA lysis buffer containing protease and phosphatase inhibitors was used, and protein was isolated via centrifugation at 17,000 g for 10 min at 4° C. For all samples, protein concentration of the lysates was measured using the BCA Protein Assay Kit (Pierce Biotechnologies). Diluted lysates were added to Laemmli sample buffer and denatured at 95° C. for 5 min. After sample preparation, proteins were resolved via SDS-polyacrylamide gel electrophoresis (4-12%) using NuPAGE 4-12% Bis-Tris gels (Invitrogen), and transferred to nitrocellulose membranes. Blots were placed in blocking buffer (LI-COR Biosciences) and incubated overnight at 4° C. with primary antibodies at the recommended dilution. Blots were washed 3 times (5 minutes per wash) in TBST (20 mM Tris, pH 7.6, 140 mM NaCl, and 0.1% Tween-20), and then incubated with the appropriate IRDye-conjugated secondary antibody (LI-COR Biosciences) diluted in blocking buffer and incubated at room temperature for an hr. […] Bands were quantified using Image Studio™ (LI-COR Biosciences).
# [3] = tested on: differentiated 3T3-L1 adipocytes; assay: Hyperplasia (intracellular triglycerides, Triglyceride-Glo)
# Protocol: Hyperplasia (Intracellular Triglycerides): 3T3-L1 cells were seeded and differentiated in clear bottom 96-well plates (Corning®). After differentiation, cells were treated with or without 1 μM AZD3965 for 24 hr, 48 hr or 72 hr. After compound incubation, media was changed to normal growth media with or without 100 nM insulin and cultured for an additional 72 hrs. Upon completion of the second incubation period, adipocytes were lysed and subjected to the Triglyceride-Glo™ Assay (Promega®) according to the manufacturer's instructions. The luminescent signal produced is proportional to the amount of triglycerides detected within the sample. Luminescence was read on a spectrophotometer (FlexStation 3; Molecular Devices).
# [4] = tested on: differentiated 3T3-L1 cells; assay: Proliferation (CyQUANT NF) of differentiated adipocytes; settings: 72 hr treatment, all concentrations ≥1 μM
# Protocol: Proliferation: 3T3-L1 cells were seeded and differentiated in black clear bottom 96-well plates (Corning®). After differentiation, wells were treated with vehicle or AZD3965 concentrations ranging from 10 nM to 10 µM for 24 hr, 48 hr or 72 hr as indicated. Cell viability was measured at the end of each treatment time using the CyQUANT™ NF Cell Proliferation assay (Invitrogen™) according to the manufacturer's protocols.
# [5] = tested on: differentiated 3T3-L1 (WT) cells; assay: Oil Red O staining of fully differentiated adipocytes; settings: 1 μM, 24 hr, 48 hr or 72 hr
# Protocol: Differentiation Protocol: The 3T3-L1 differentiation protocol was adapted from Green and Meuth (1974) (Zebisch, K, et al. Anal. Biochem. 2012 425:88-90; Green, H, et al. Cell 1974 3:127-133). Cells were seeded at approximately 80% confluency and allowed to reach confluency prior to induction of differentiation. 1-2 days post confluency, growth media was changed to ‘day 0’ media consisting of media supplemented with 0.5 mM 1-methyl-3-isobutyl xanthine (IBMX), 1 µM dexamethasone, and 10 μg/mL insulin. On ‘day 3’ media was changed to growth media with 10 μg/mL insulin only, and on ‘day 6’ media was replaced with normal growth media. After day 6, the complete media was refreshed every 2 days. Using Oil Red O staining, RT-qPCR and immunoblotting, it was determined that 3T3-L1 cells were fully differentiated into lipid-laden adipocytes by ‘day 8’ of the protocol, as reported by others (Petersen, C, et al. Sci. Rep. 2017 7:13101; Mangum, L H, et al. Toxicol. Lett. 2015 238:65-71). All differentiation experiments were performed on cells between passage 4 and 6 to ensure differentiation efficiency was consistent. Oil Red O Staining: Cells were then fixed with 4% PFA for 10 minutes. […] 10× images of cells were taken from randomized fields of view with the Cytation 5 Cell Imaging Multi-Mode reader (BioTek Instruments). Lipid content was also quantified on the Cytation 5.
# [6] = differentiated adipocytes, 1 μM, 24 hr
# [7] = mature adipocytes, 24 hr treatment
smiles,measurement,setting,value
"Cc1[nH]nc(C(F)(F)F)c1Cc1sc2c(c1C(=O)N1C[C@](C)(O)CO1)c(=O)n(C)c(=O)n2C(C)C [AZD3965, 5-[[(4S)-4-hydroxy-4-methyl-2-isoxazolidinyl]carbonyl]-3-methyl-1-(1-methylethyl)-6-[[5-methyl-3-(trifluoromethyl)-1H-pyrazol-4-yl]methyl]-thieno[2,3-d]pyrimidine-2,4 (1H, 3H)-dione]",CDK1 mRNA level,[1]; [6],significant upregulation
same,Cyclin B mRNA level,[1]; [6],significant upregulation
same,PLK1 mRNA level,[1]; [6],significant upregulation
same,TOP2A mRNA level,[1]; [6],significant upregulation
same,FABP4 mRNA levels,[1]; [7],significantly increased
same,HSL mRNA levels,[1]; [7],significantly decreased
same,PPARγ transcript levels,[1]; [7],significant decrease
same,total CDK1 protein expression,"[2]; 1 μM, up to 72 hr",no change
same,CDK1 phosphorylation at Tyr15,"[2]; 1 μM, up to 72 hr, normalized to total CDK1 and α-tubulin",significant decrease
same,HSL protein expression,"[2]; mature adipocytes, 24-72 hr treatment",significant decrease
same,FABP4 protein expression,"[2]; mature adipocytes, 48 hr treatment",significantly increased
same,FABP4 protein expression,"[2]; mature adipocytes, by 72 hr treatment",this increase was attenuated
same,PPARγ protein expression,"[2]; mature adipocytes, up to 72 hr treatment",no changes
same,total triglyceride content,"[3]; pretreated 1 μM 24 hr and 72 hr, then cultured 72 hr with 100 nM insulin",did not reach statistical significance
same,total triglyceride content,"[3]; pretreated 1 μM 48 hr, then cultured 72 hr with 100 nM insulin",significantly more triglycerides
same,total triglyceride content,"[3]; pretreated 1 μM up to 72 hr, then cultured 72 hr without insulin",significantly more triglycerides
same,total cell number (proliferation),[4],significant increase in total cell number
same,lipid content (Oil Red O staining) of differentiated adipocytes,[5],progressive decrease in lipid content
